{"source": "patent US8883748B2", "about": "“Formulation for treating fungal infection” (Lifecare Innovations Pvt. Ltd., priority 2009, dated 2014)", "test_in_all_cases": "In-vitro antifungal spectrum and MIC, clinical isolates", "type_in_all_cases": "cell-based", "key": {"[1]": {"system": "Pseudallescheria boydii", "protocol": "(§1) The experiments were carried out to determine antifungal spectrum and MIC of Nanosomal Amphotericin B vis-à-vis commonly used antifungals viz.\n(§2) Amphotericin B, Voriconazole, Itraconazole and Fluconazole to ascertain efficacy against pathogenic yeasts and moulds including dermatophytes."}, "[2]": {"system": "Trichophyton rubrum", "details": "for MIC: in µg/mL (unit assumed)", "protocol": "as §1, §2"}, "[3]": {"system": "Penicillium marneffei", "details": "for MIC: in µg/mL (unit assumed)", "protocol": "as §1, §2"}, "[4]": {"system": "Apophysomyces elegans", "details": "for MIC: unit assumed", "protocol": "as §1, §2"}, "[5]": {"system": "Curvularia spp.", "details": "for MIC: in µg/mL (unit assumed)", "protocol": "as §1, §2"}, "[6]": {"system": "Mucor spp.", "details": "for MIC: in µg/mL (unit assumed)", "protocol": "as §1, §2"}, "[7]": {"system": "Trichophyton mentagrophytes", "details": "for MIC: in µg/mL (unit assumed)", "protocol": "as §1, §2"}, "[8]": {"system": "Paeciliomyces spp.", "details": "for MIC: in µg/mL (unit assumed)", "protocol": "as §1, §2"}, "[9]": {"system": "Fusarium spp.", "details": "for MIC: in µg/mL (unit assumed)", "protocol": "as §1, §2"}, "[10]": {"system": "Phialophora verrucosa", "details": "for MIC: unit assumed", "protocol": "as §1, §2"}, "[11]": {"system": "Cladophialophora bantiana", "details": "for MIC: in µg/mL (unit assumed)", "protocol": "as §1, §2"}, "[12]": {"system": "Cryptococcus neoformans", "details": "for MIC: in µg/mL (unit assumed)", "protocol": "as §1, §2"}, "[13]": {"system": "Absidia corymbifera", "details": "for MIC: in µg/mL (unit assumed)", "protocol": "as §1, §2"}, "[14]": {"system": "Microsporum gypseum", "details": "for MIC: in µg/mL (unit assumed)", "protocol": "as §1, §2"}, "[15]": {"system": "Sporothrix schenckii", "details": "for MIC: in µg/mL (unit assumed)", "protocol": "as §1, §2"}, "[16]": {"system": "Rhizopus arrhizus, R. pusilus", "details": "for MIC: in µg/mL (unit assumed)", "protocol": "as §1, §2"}, "[17]": {"system": "Candida albicans", "details": "for MIC: in µg/mL (unit assumed)", "protocol": "as §1, §2"}, "[18]": {"system": "Aspergillus flavus, A. fumigatus", "details": "for MIC: in µg/mL (unit assumed)", "protocol": "as §1, §2"}, "[19]": {"system": "Aspergillus oryzae", "details": "for MIC: in µg/mL (unit assumed)", "protocol": "as §1, §2"}, "[20]": {"system": "Alternaria spp.", "details": "for MIC: in µg/mL (unit assumed)", "protocol": "as §1, §2"}, "[21]": {"system": "Scytalidum dimidatum", "details": "for MIC: unit assumed", "protocol": "as §1, §2"}}, "data": [{"smiles": "C[C@@H]1[C@H](O)[C@@H](C)/C=C/C=C/C=C/C=C/C=C/C=C/C=C/[C@H](O[C@@H]2O[C@H](C)[C@@H](O)[C@H](N)[C@@H]2O)C[C@@H]2O[C@](O)(C[C@@H](O)C[C@@H](O)[C@H](O)CC[C@@H](O)C[C@@H](O)CC(=O)O[C@H]1C)C[C@H](O)[C@H]2C(=O)O", "note": "[Amphotericin B]", "values": [{"measurement": "Susceptibility category", "setting": "[1]", "value": "Active"}, {"measurement": "MIC", "setting": "[1]; in µg/mL (unit assumed)", "value": "0.5-1"}, {"measurement": "Susceptibility category", "setting": "[2]", "value": "Active"}, {"measurement": "MIC", "setting": "[2]", "value": "0.25-1"}, {"measurement": "Susceptibility category", "setting": "[3]", "value": "Active"}, {"measurement": "MIC", "setting": "[3]", "value": "0.25-1"}, {"measurement": "Susceptibility category", "setting": "[4]", "value": "Active"}, {"measurement": "MIC", "setting": "[4]", "value": 2, "unit": "µg/mL"}, {"measurement": "Susceptibility category", "setting": "[5]", "value": "Active"}, {"measurement": "MIC", "setting": "[5]", "value": "0.125-1"}, {"measurement": "Susceptibility category", "setting": "[6]", "value": "Active"}, {"measurement": "MIC", "setting": "[6]", "value": "1-2"}, {"measurement": "Susceptibility category", "setting": "[7]", "value": "Active"}, {"measurement": "MIC", "setting": "[7]", "value": "0.5-2"}, {"measurement": "Susceptibility category", "setting": "[8]", "value": "Intermediate"}, {"measurement": "MIC", "setting": "[8]", "value": "1-4"}, {"measurement": "Susceptibility category", "setting": "[9]", "value": "Active"}, {"measurement": "MIC", "setting": "[9]", "value": "0.5-1"}, {"measurement": "Susceptibility category", "setting": "[10]", "value": "Intermediate"}, {"measurement": "MIC", "setting": "[10]", "value": 4, "unit": "µg/mL"}, {"measurement": "Susceptibility category", "setting": "[11]", "value": "Active"}, {"measurement": "MIC", "setting": "[11]", "value": "0.5-1"}, {"measurement": "Susceptibility category", "setting": "[12]", "value": "Active"}, {"measurement": "MIC", "setting": "[12]", "value": "0.25-1"}, {"measurement": "Susceptibility category", "setting": "[13]", "value": "Active"}, {"measurement": "MIC", "setting": "[13]", "value": 0.5}, {"measurement": "Susceptibility category", "setting": "[14]", "value": "Active"}, {"measurement": "MIC", "setting": "[14]", "value": 0.5}, {"measurement": "Susceptibility category", "setting": "[15]", "value": "Active"}, {"measurement": "MIC", "setting": "[15]", "value": "0.5-1"}, {"measurement": "Susceptibility category", "setting": "[16]", "value": "Active"}, {"measurement": "MIC", "setting": "[16]", "value": "0.5-2"}, {"measurement": "Susceptibility category", "setting": "[17]", "value": "Active"}, {"measurement": "MIC", "setting": "[17]", "value": "0.125-1"}, {"measurement": "Susceptibility category", "setting": "[18]", "value": "Active"}, {"measurement": "MIC", "setting": "[18]", "value": "0.5-2"}, {"measurement": "Susceptibility category", "setting": "[19]", "value": "Intermediate"}, {"measurement": "MIC", "setting": "[19]", "value": "2-4"}, {"measurement": "Susceptibility category", "setting": "[20]", "value": "Active"}, {"measurement": "MIC", "setting": "[20]", "value": "1-2"}, {"measurement": "Susceptibility category", "setting": "[21]", "value": "Active"}, {"measurement": "MIC", "setting": "[21]", "value": 0.5, "unit": "µg/mL"}]}, {"smiles": "C[C@@H](c1ncncc1F)[C@](O)(Cn1cncn1)c1ccc(F)cc1F", "note": "[Voriconazole]", "values": [{"measurement": "Susceptibility category", "setting": "[1]", "value": "Active"}, {"measurement": "Susceptibility category", "setting": "[2]", "value": "Active"}, {"measurement": "MIC", "setting": "[2]", "value": "0.25-0.5"}, {"measurement": "Susceptibility category", "setting": "[3]", "value": "Active"}, {"measurement": "MIC", "setting": "[3]", "value": "0.25-1"}, {"measurement": "Susceptibility category", "setting": "[4]", "value": "Intermediate"}, {"measurement": "MIC", "setting": "[4]", "value": 8, "unit": "µg/mL"}, {"measurement": "Susceptibility category", "setting": "[5]", "value": "Active"}, {"measurement": "MIC", "setting": "[5]", "value": "1-2"}, {"measurement": "Susceptibility category", "setting": "[6]", "value": "Resistant"}, {"measurement": "MIC", "setting": "[6]", "value": "8-16"}, {"measurement": "Susceptibility category", "setting": "[7]", "value": "Active"}, {"measurement": "MIC", "setting": "[7]", "value": "0.5-1"}, {"measurement": "Susceptibility category", "setting": "[8]", "value": "Variable"}, {"measurement": "MIC", "setting": "[8]", "value": "0.125-8"}, {"measurement": "Susceptibility category", "setting": "[9]", "value": "Intermediate"}, {"measurement": "MIC", "setting": "[9]", "value": "0.5-4"}, {"measurement": "Susceptibility category", "setting": "[10]", "value": "Active"}, {"measurement": "MIC", "setting": "[10]", "value": 1, "unit": "µg/mL"}, {"measurement": "Susceptibility category", "setting": "[11]", "value": "Active"}, {"measurement": "MIC", "setting": "[11]", "value": "0.25-2"}, {"measurement": "Susceptibility category", "setting": "[12]", "value": "Variable"}, {"measurement": "MIC", "setting": "[12]", "value": "0.03-16"}, {"measurement": "Susceptibility category", "setting": "[13]", "value": "Variable"}, {"measurement": "MIC", "setting": "[13]", "value": "2-16"}, {"measurement": "Susceptibility category", "setting": "[14]", "value": "Active"}, {"measurement": "MIC", "setting": "[14]", "value": "0.125-0.5"}, {"measurement": "Susceptibility category", "setting": "[15]", "value": "Variable"}, {"measurement": "MIC", "setting": "[15]", "value": "0.03-16"}, {"measurement": "Susceptibility category", "setting": "[16]", "value": "Variable"}, {"measurement": "MIC", "setting": "[16]", "value": "1-8"}, {"measurement": "Susceptibility category", "setting": "[17]", "value": "Variable"}, {"measurement": "MIC", "setting": "[17]", "value": "0.03-8"}, {"measurement": "Susceptibility category", "setting": "[18]", "value": "Active"}, {"measurement": "MIC", "setting": "[18]", "value": "0.125-1"}, {"measurement": "Susceptibility category", "setting": "[19]", "value": "Intermediate"}, {"measurement": "MIC", "setting": "[19]", "value": "0.5-4"}, {"measurement": "Susceptibility category", "setting": "[20]", "value": "Active"}, {"measurement": "MIC", "setting": "[20]", "value": "0.5-1"}, {"measurement": "Susceptibility category", "setting": "[21]", "value": "Active"}, {"measurement": "MIC", "setting": "[21]", "value": 0.5, "unit": "µg/mL"}]}]}
